Entries after “also recorded” stand apart in the source; their conditions may differ.

What all share (type): cell-based
Test [1] deals with human retinal endothelial cells (HREC). The test is described as follows: Endothelial cell chemotaxis / chemokinesis in blind-well (Boyden) chambers. As to conditions: for Effect on NECA-stimulated HREC migration (chemotaxis): antagonist 10 μmol/L co-added with NECA 10 μmol/L. How it is done: (§1) Primary cultures of HREC were prepared and maintained as previously described and cells in passage 3-6 were used for these studies. […] To maintain purity of HREC, several precautionary steps were taken. […] In addition, cultures of HREC were exposed to trypsin for only 45 sec prior to passage. Endothelial cells float off during this short trypsin treatment while pericytes remain attached to the substrate.
Endothelial cell chemotaxis was measured in blind-well chemotaxis chambers (Neuroprobe, Inc, Bethesda, Md.) as previously described. Briefly a single cell suspension of endothelial cells ([…] cells/well) was prepared and treated with ADA (1 U/mL). Thirty microliters of this suspension was placed in each of 48 lower wells of the blind-well apparatus. The wells were overlaid with a porous (5 μm diameter pore) polyvinyl—and pyrrolidone-free polycarbonate membrane (Nucleopore, Pleasanton, Calif.), coated with 0.1% dermal collagen. The cells were allowed to attach to the membrane by inverting the chamber of 2 h. The chambers were then placed upright and exposed to NECA alone (10 μmol/L), NECA combined with 3-N-propylxanthine (10 μmol/L), JW-V1-08 (10 μmol/L) or the non-selective AdoR antagonist xanthine amine congener (XAC, 10 μmol/L) in a 50 μL volume. After incubation for 12 h, the membrane was recovered and scraped free of cells on the attachment side. The remaining cells, those that had migrated through the pores, were fixed in methanol, is stained with modified Wright's stain and then counter-stained with haematoxylin and eosin. The positive control was 10% fetal bovine serum and the negative control was 1% ablumin. Chemokinesis, the non-oriented increase in cell migration in response to a stimulus, was measured by adding equal concentration of NECA or NECA plus one of the antagonists to both lower and upper chambers. Treatment conditions were examined in triplicate in three separate experiments.

The test system is the same in test [2]. In words: Matrigel assay of endothelial tube formation. The note with it: 48 h; for Effect on NECA-induced tube formation on Matrigel (photomicrographs): antagonist 10 μmol/L with NECA 10 μmol/L, FIG. 2C, 2D; for Total tube length in the presence of NECA: antagonist added to NECA, NECA alone 74.2±2.4. How it is done: as §1
Endothelial tube formation was assessed on Matrigel. Briefly, Matrigel was thawed and kept at 4° C. Multi-well plates and pipette tips were chilled to −20° C. and Matrigel (125 μL) was added to each well of a 48-well plate and allowed to harden for a minimum of 1 h at 37° C. HREC were dissociated enzymatically (2 min at 37° C. in 0.25% Trypsin-EDTA), centrifuged (300×g, 5 min) and re-suspended in serum-free media. Test agents (100 μL) were prepared at 2× final concentration and 100 μL were added to wells. HREC (3×10 in 100 μL per well) were then added and plates were incubated at 37° C. Wells were photographed 48 h after plating. Identical fields in each well were photographed to minimize the possible variation due to variable cell density caused by the settling of cells. […] All conditions were tested in duplicate wells in three separate experiments using cells from different donors.

For test [3] the test system is unchanged. In words: HREC proliferation assay (cell counting, Coulter Counter). As to conditions: for Effect on NECA-induced HREC proliferation: antagonist 10 μmol/L with NECA 10 μmol/L, FIG. 1A. How it is done: as §1
HREC were seeded at 10 cells/cm in 24 well plates and allowed to adhere overnight. Cells were washed in Hank's balanced salt solution and the medium was replaced with serum—and growth supplement-free medium (SFM) for 24 hr to induce cell-cycle arrest. Cells were washed again and pre-treated with 1 U/mL adenosine deaminase (ADA) for 30 min. […] Controls were HREC exposed to SFM or normal growth medium. For the next three days at 24-hour intervals replicate wells were treated with trypsin and the cells were collected and counted using a Coulter Counter. Each condition was examined in triplicate in three separate experiments using cells from different donors for each experiment.

For the compound `CCCn1c(=O)c2[nH]c(-c3ccc(OCC(=O)NCCN)cc3)nc2n(CCC)c1=O` [XAC, xanthine amine congener], in test [1] (12 h, FIG. 1B), the “Effect on NECA-stimulated HREC migration (chemotaxis)” value (“Effect … (chemotaxis)” for short) was “abolished NECA-stimulated migration of HREC”.

On to `CC(C)Cn1c(=O)[nH]c(=O)c2[nH]c(N3CCCC3)nc21` [JW-V1-08, 3-isobutyl-8-pyrrolidinoxanthine], for which the “Effect on NECA-induced tube formation on Matrigel (photomicrographs)” value in test [2] is “diminished NECA-induced tube formation; also recorded: inhibited”. The “Total tube length in the presence of NECA” value in test [2] (p<0.01) is given as 66±1.2 pixel. In test [3], the “Effect on NECA-induced HREC proliferation” value was “completely blocked; also recorded: completely block the proliferative effect of NECA”. In test [1] (12 h, FIG. 1B), the “Effect … (chemotaxis)” value is given as “antagonized the stimulatory effect of NECA on chemotaxis”.

On to `CCCn1c(=O)[nH]c(=O)c2[nH]cnc21` [3-N-propylxanthine], for which the “Effect on NECA-induced tube formation on Matrigel (photomicrographs)” value in test [2] is “diminished NECA-induced tube formation; also recorded: inhibited tube formation, resulting in fewer tubes of shorter length”. The “Total tube length in the presence of NECA” value in test [2] (p<0.01) is listed as 53.7±0.9 pixel. In test [3], the “Effect on NECA-induced HREC proliferation” value was “completely blocked; also recorded: completely block the proliferative effect of NECA”. In test [1] (12 h, FIG. 1B), the “Effect … (chemotaxis)” value is reported as “antagonized the stimulatory effect of NECA on chemotaxis”.

In the case of `CCNC(=O)[C@H]1O[C@@H](n2cnc3c(N)ncnc32)[C@H](O)[C@@H]1O` [NECA, 5′-N-ethylcarboxamido-adenosine], the “Endothelial cell tube formation on Matrigel (photomicrographs)” value in test [2] (NECA 10 μmol/L alone, FIG. 2B) is on record as “supported extensive tube formation”. Also, in test [2] (NECA alone), the “Increase of tube length over untreated cells” value is reported as “more than 2 fold”. In test [2] (NECA alone, untreated cells 35.7±1.6, p<0.01), this compound gave a Total tube length of 74.2±2.4 pixel. Further, the “HREC proliferation by cell counts, as density relative to cells exposed to normal growth medium” value in test [3] (NECA 10 μmol/L, 3 days, ADA-pretreated serum-starved HREC) is reported as “about 80%”. In test [1] (NECA alone versus unstimulated cells, 12 h, FIG. 1B), the “HREC chemotaxis / migration” value was “concentration-dependent increase in HREC migration; also recorded: increased migration in a concentration-dependent manner”. In addition, the “Chemokinesis (non-oriented increase in cell migration)” value in test [1] (equal concentration in lower and upper chambers) was “Neither NECA alone nor NECA in combination with the AdoR antagonists induced chemokinesis”.

Source of the values: patent US6894021B2, “Method for identifying and using A2B adenosine receptor antagonists to mediate mammalian cell proliferation” (CV Therapeutics, Inc., priority 2000, dated 2005).
